Experimental data reported in patent US8937167B2 (Washington University, priority 2009, dated 2015).
pIC50, pKd: −log10 of the molar value. Like-named read-outs stand apart in the source and are kept apart here.

What was measured:
[1] = molecular target: T1, FimH lectin domain (residues 1-158 of UPEC J96 FimH) (Escherichia coli, UniProt P08191); type: binding; conditions: Table 20; compound at 100 μM
T1 construct: made in house
Experimental: DSF measures the melting temperature change of protein when binding to small molecules. Melting temperature shifts are proportional to the free energy of binding, and melting temperatures increase even as ligand concentration exceeds the Kd.
FimH lectin domain (residues 1-158 of UPEC J96 FimH, without an affinity tag) was purified as described previously. Five micrograms FimH in 5 μl HBS were mixed with HBS to yield a final volume of 50 μl containing compound at a final concentration of 100 μM and a “5×” final concentration of SYPRO Orange (sold as a “5000×” stock in DMSO and mixed with HBS to a working stock of 50× immediately before use: Life Technologies Inc.; Grand Island, N.Y.). Compounds were diluted to 100 μM from stocks in DMSO and compared to matched control wells with FimH alone plus 0.2% DMSO. 50 μl reactions were placed in 96-well clear-bottom PCR plates and subjected to a melt curve from 20-90° C. in 0.5° C. increments of 15 seconds each followed by a fluorescence read of the “HEX” channel in a Bio-Rad CFX96 thermocycler (Bio-Rad, Hercules, Calif.). Melt curves were fitted to the Boltzmann equation to determine the melting temperature (Tm) (y=A2+(A1−A2)/(1+exp((x−x0)/dx)) where x0 is the Tm) using OriginPro 8 (OriginLab, Northampton Mass.).

FimH lectin domain = molecular target: T2, FimH lectin domain (Escherichia coli, UniProt P08191); test: biochemical; type: binding, E. coli
T2 construct: made by biotinylating FimH lectin domain^25 at a 1:1 molar ratio with NHS-PEO4-Biotin
Experimental: Samples or buffer (200 μL per well) were dispensed into 96-well microtiter plates (Greiner Bio-One, Monroe N.C.) and maintained at 30° C. with 1000 RPM shaking. Pre-manufactured pins for individual assays were made by biotinylating FimH lectin domain^25 at a 1:1 molar ratio with NHS-PEO4-Biotin (Thermo Fisher, Rockford Ill.), diluting it to 50 μg/ml in 20 mM HEPES pH 7.5, 150 mM NaCl (HBS), immobilizing it on high-binding streptavidin-coated biosensor tips (Super Streptavidin, ForteBio, Inc., Menlo Park, Calif.) for 10 minutes at 30° C., blocking the pins with 10 μg/ml biocytin for 2 minutes, washing in HBS for 1 hour, and rinsing in 15% sucrose in HBS. Pins were then air dried for 30 minutes and stored in their original packaging with a dessicant packet. Assays were performed by re-wetting premade pins with HBS for 15 minutes, then storing them in fresh HBS until use. […] Each experimental pin was referenced to a biocytin-blocked pin to control for instrument drift and a second biocytin-blocked pin that was passed through a duplicate experiment in the same 96-well plate to control for nonspecific binding of the compound to the pin. Kinetics data and affinity constants were generated automatically by the global fitting protocol in ForteBio Data Analysis version 6.3.

FimH [2] = molecular target: T3, FimH (Escherichia coli, UniProt Q1R2J4); conditions: for HAI Titer EC>50: Table 21;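 on all read-outs here: hemagglutination inhibition of guinea pig erythrocytes agglutinated by type 1 piliated uropathogenic E. coli via FimH mannose binding, quantified through serial dilutions of compound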
UTI89 biofilm = test: UTI89 type 1 dependent biofilm formation (inhibition/prevention) assay on PVC, crystal violet; type: cell-based, uropathogenic E. coli UTI89; conditions: Escherichia coli
In short: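 Prevention: UTI89 grown in LB in PVC wells at 23° C with mannoside at varying concentrations for 48 h, then crystal violet stained and quantified. Disruption: 24 h UTI89 biofilm, mannoside added, grown 16 h more, then crystal violet.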

[3] = type: in vitro ADME; conditions: for PAMPA (LogPe): pH 7.4
Experimental: Materials. The assay was carried out using Multiscreen PVDF 96-well plates (Millipore, Billerica, Mass.) using the company's Transporter Receiver Plate. The lipid (dioleyoylphosphotidylcholine (DOPC):Stearic Acid (80:20, wt %) in dodecane was obtained from Avanti Polar lipids (Alabaster, Ala.). Hank's Buffered Salt Solution (HBSS), pH 7.4 was obtained from MediaTech (Manassas, Va.).
Methods. Each of the test compounds was diluted to 2.5 mM in DMSO (Sigma, St Louis, Mo.) and further diluted prior to testing to 2.5 μM in HBSS, pH 7.4. The assay was performed using a Millipore 96-well Multiscreen-IP PAMPA plate, 5 μl of the lipid suspension was directly added to the PVDF membrane of the filter plate. Immediately following the addition of the lipid to the membrane, 200 μl of HBSS solution containing the test compound was added to the donor (upper) chamber. HBSS (300 μl) is also added to the receiver plate and the filter and receiver plates assembled and incubated overnight at room temperature in a moistened sealed bag to prevent evaporation. The concentration in the receiver plate as well as an equilibrium plate, that represents a theoretical, partition-free sample, was determined by HPLC-tandem mass spectrometry. Analysis of each compound was performed in triplicate.
Analysis. Analysis of both the acceptor and equilibrium samples were performed using an AB 3200 triple quadripole mass spectrometer linked to a Shimadzu DGU-20A HPLC with a Prevail C18 column (3 μm, 2.1×10 mm) with a flow rate of 0.35 ml/min. The mobile phase used was A: 0.1% Formic Acid in water, B: 0.1% Formic Acid in methanol. The elation gradient method is described in the table. Data acquisition and peak height determination was performed using Analyst v.1.4.2.
Calculations. The login of the effective permeability (LogPe) was calculated using the following equation
[formula] [formula] Where the drug concentration is the peak areas for the analyte and VD and VA is the volume of the donor and acceptor compartment respectively. The area is the surface area of the PVDF membrane (0.11 cm^2) and time is the incubation in seconds (64,800 sec). Each value is the mean of triplicates performed on the same day.

FimH [4] = molecular target: T3, FimH; test: cell-based; conditions: read-out: HAI Titer EC90
[5] = Table 20, Examples 30-36 numbering
[6] = read-out: Biofilm Prevention IC50
[7] = Table 17, Examples 30-36 numbering

SMILES | DSF Melting Temp. [1] [°C] | pKd (FimH lectin domain; Table 20, read-out: Octet Kd) | HAI Titer EC>90 (FimH [2]; [5]) [µM] | pIC50 (UTI89 biofilm; [6]) | PAMPA (LogPe) ([3]; 64800 sec, […]) | also measured
O=C(O)c1cccc(-c2ccc(O[C@H]3O[C@H](CO)[C@@H](O)[C@H](O)[C@@H]3O)cc2)c1 [Compound 30] | 70.93 | 8.66 | 4.000 | – | – | –
CNC(=O)c1cccc(-c2ccc(O[C@H]3O[C@H](CO)[C@@H](O)[C@H](O)[C@@H]3O)cc2)c1 [Compound 2] | 73.38 | – | 0.500 | 5.87 | – | pIC50 (UTI89 biofilm; read-out: biofilm inhibition IC50): 5.87; pKd (FimH lectin domain): 10.00; Kd, qualitative (FimH lectin domain): picomolar range; HAI Titer EC>90 (FimH [2]; [7]): 0.50 µM
CNS(=O)(=O)c1cccc(-c2ccc(O[C@H]3O[C@H](CO)[C@@H](O)[C@H](O)[C@@H]3O)cc2)c1 [Compound 19] | 72.05 | 9.31 | 1.000 | – | – | –
COC(=O)c1cccc(O[C@H]2O[C@H](CO)[C@@H](O)[C@H](O)[C@@H]2O)c1 [Compound 32] | 70.75 | 8.57 | 6.000 | – | – | –
COC(=O)c1cccc(-c2ccc(O[C@H]3O[C@H](CO)[C@@H](O)[C@H](O)[C@@H]3O)c(Cl)c2)c1 [Compound 4b, Methyl 3-[3-chloro-4-[(2R,3S,4S,5S,6R)-3,4,5-trihydroxy-6-(hydroxymethyl)tetrahydropyran-2-yl]oxy-phenyl]benzoate] | – | – | – | 6.59 | −4.29 | EC90 (FimH [4]): 30 nM; HAI Titer EC>90 (FimH [2]; [7]): 0.03 µM; fold better HAI activity (FimH [2]; relative to matched pair 1, Examples 30-36 numbering): more than 30 fold
OCC1OC(Oc2ccc(-c3ccc(O)cc3)cc2)C(O)C(O)C1O (stereo not drawn) [Compound 3ZFH26, 2-(hydroxymethyl)-6-[4-(4-hydroxyphenyl)phenoxy]tetrahydropyran-3,4,5-triol] | – | – | – | – | −8.890 | –
OC[C@H]1O[C@H](Oc2ccc3ccccc3c2)[C@@H](O)[C@@H](O)[C@@H]1O [Compound 31] | 70.75 | 8.57 | 6.000 | – | – | –
O=[N+]([O-])c1ccc(COC2OC(CO)C(O)C(O)C2O)cc1 (stereo not drawn) [Compound 5b] | – | – | – | – | – | LogPe ([3]; PAMPA): −3.89; PAMPA (LogPe) [3]: −3.89
COC(=O)c1cccc(-c2ccc(O[C@H]3O[C@H](CO)[C@@H](O)[C@H](O)[C@@H]3O)c(C(F)(F)F)c2)c1 [Compound 4d, Methyl 3-[3-(trifluoromethyl)-4-[(2R,3S,4S,5S,6R)-3,4,5-trihydroxy-6-(hydroxymethyl)tetrahydropyran-2-yl]oxy-phenyl]benzoate] | – | – | – | 6.77 | −3.91 | EC90 (FimH [4]): 30 nM; HAI Titer EC>90 (FimH [2]; [7]): 0.03 µM
NC(=O)Nc1ccc(-c2ccc(OC3O[C@@H](CO)[C@@H](O)[C@H](O)[C@H]3O)cc2)cc1 (stereo partly drawn) [Compound 4ZFH218, [4-[4-[(3R,4S,5S,6S)-3,4,5-trihydroxy-6-(hydroxymethyl)tetrahydropyran-2-yl]oxyphenyl]phenyl]urea] | – | – | – | – | −4.35 | HAI Titer EC>90 (FimH [2]): 3.000 µM; HAI Titer EC>50 (FimH [2]; ZFH/JWJ codes): 3.000 µM; HAI Titer EC>90 (FimH [2]; Table 22, ZFH/JWJ codes): 3.000 µM
COC(=O)c1cccc(-c2ccc(OC3OC(CO)C(O)C(O)C3O)cc2)c1 (stereo not drawn) [Compound 2ZFH236] | – | – | – | – | −4.250 | HAI Titer EC>50 (FimH [2]): >2500 µM
COC(=O)c1cccc(-c2ccc(OC3O[C@@H](CO)[C@@H](O)[C@H](O)[C@H]3O)c(C(F)(F)F)c2)c1 (stereo partly drawn) [Compound 4ZFH222, methyl 3-[3-(trifluoromethyl)-4-[(3R,4S,5S,6S)-3,4,5-trihydroxy-6-(hydroxymethyl)tetrahydropyran-2-yl]oxy-phenyl]benzoate] | – | – | – | 5.09 | −3.91 | HAI Titer EC>90 (FimH [2]): 0.032 µM; HAI Titer EC>50 (FimH [2]; ZFH/JWJ codes): 0.032 µM; HAI Titer EC>90 (FimH [2]; Table 22, ZFH/JWJ codes): 0.032 µM
CC(=O)Nc1cccc(-c2ccc(O[C@H]3O[C@H](CO)[C@@H](O)[C@H](O)[C@@H]3O)cc2)c1 [Compound 26] | 72.30 | 8.94 | 2.000 | – | – | –
